From ChEMBL document CHEMBL1125402, “Conformational effects on the activity of drugs. 13. A revision of previously proposed models for the activation of alpha- and beta-adrenergic receptors” (J Med Chem, 1992)

Assays:
[1] = target: T1, Beta-2 adrenergic receptor (Bos taurus, UniProt Q28044); test: Compound was evaluated for beta adrenergic binding affinity towards Beta-2 adrenergic receptor of bovine lung
[2] = target: T2, Adrenergic receptor alpha-2 (Rattus norvegicus, UniProt P22086+P19328+P22909); test: Binding affinity towards Alpha-2 adrenergic receptor of rat brain
T2 sequence (P22086 whole entry): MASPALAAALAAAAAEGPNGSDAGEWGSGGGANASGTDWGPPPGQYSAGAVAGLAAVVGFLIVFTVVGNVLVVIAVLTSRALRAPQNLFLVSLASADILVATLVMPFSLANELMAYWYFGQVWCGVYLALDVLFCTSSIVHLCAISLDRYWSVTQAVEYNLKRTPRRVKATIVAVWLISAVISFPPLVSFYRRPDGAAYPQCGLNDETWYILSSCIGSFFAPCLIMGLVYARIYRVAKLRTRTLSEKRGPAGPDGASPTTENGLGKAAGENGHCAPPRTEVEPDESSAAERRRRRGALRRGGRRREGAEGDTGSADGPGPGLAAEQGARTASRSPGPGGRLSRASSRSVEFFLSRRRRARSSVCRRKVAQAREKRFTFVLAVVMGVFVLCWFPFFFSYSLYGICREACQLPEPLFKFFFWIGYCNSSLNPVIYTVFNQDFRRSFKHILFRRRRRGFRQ
T2 sequence (P19328 whole entry): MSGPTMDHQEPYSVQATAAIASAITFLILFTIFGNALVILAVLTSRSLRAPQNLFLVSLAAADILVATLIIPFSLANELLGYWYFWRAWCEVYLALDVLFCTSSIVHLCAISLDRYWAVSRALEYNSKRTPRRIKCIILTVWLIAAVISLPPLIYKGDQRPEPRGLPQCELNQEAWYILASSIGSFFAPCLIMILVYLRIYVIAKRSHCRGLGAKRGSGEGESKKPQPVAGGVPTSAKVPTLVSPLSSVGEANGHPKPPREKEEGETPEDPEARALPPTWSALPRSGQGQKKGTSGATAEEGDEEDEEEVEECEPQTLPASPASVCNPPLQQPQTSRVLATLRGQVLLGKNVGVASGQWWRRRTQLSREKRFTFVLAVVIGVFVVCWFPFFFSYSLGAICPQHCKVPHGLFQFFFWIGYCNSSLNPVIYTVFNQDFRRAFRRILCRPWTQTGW
T2 sequence (P22909 whole entry): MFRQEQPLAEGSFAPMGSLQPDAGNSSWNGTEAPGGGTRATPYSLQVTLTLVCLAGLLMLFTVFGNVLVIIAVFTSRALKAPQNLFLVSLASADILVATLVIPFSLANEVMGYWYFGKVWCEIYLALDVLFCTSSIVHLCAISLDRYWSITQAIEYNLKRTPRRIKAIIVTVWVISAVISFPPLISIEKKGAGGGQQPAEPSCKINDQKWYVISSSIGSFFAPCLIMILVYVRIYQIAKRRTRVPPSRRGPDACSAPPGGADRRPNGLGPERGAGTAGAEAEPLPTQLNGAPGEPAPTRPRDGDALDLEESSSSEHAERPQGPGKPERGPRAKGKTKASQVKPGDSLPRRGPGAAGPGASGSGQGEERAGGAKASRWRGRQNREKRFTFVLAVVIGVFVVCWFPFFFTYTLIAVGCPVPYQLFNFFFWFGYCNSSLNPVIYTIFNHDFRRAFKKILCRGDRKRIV

[3] = target: T3, Adrenergic receptor alpha-2 (Homo sapiens) (UniProt P08913+P18825+P18089); test: Intrinsic activity was expressed as the ratio between maximal response elicited by compound and that elicited by full agonist NE towards alpha-2 adrenergic receptor of isolated guinea pig ileum; assay type: functional, tissue-based; conditions: Cavia porcellus
[4] = target: T4, Adrenergic receptor alpha-1 (Rattus norvegicus, UniProt P15823+P23944+P43140); test: Binding affinity towards Alpha-1 adrenergic receptor of rat brain
T4 sequence (P15823 whole entry): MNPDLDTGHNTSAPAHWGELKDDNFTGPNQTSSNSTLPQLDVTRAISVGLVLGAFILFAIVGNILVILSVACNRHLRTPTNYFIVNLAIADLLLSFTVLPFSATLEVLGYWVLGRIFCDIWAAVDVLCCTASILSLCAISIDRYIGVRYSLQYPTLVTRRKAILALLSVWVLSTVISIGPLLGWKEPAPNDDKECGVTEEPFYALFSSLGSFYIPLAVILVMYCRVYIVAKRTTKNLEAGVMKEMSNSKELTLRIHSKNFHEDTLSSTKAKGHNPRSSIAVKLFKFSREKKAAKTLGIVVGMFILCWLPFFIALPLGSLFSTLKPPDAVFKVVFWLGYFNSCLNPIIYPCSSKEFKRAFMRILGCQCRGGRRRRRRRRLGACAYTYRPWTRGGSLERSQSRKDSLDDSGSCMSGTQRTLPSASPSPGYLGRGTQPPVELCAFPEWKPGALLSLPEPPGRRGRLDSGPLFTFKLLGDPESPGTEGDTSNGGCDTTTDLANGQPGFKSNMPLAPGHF
T4 sequence (P23944 whole entry): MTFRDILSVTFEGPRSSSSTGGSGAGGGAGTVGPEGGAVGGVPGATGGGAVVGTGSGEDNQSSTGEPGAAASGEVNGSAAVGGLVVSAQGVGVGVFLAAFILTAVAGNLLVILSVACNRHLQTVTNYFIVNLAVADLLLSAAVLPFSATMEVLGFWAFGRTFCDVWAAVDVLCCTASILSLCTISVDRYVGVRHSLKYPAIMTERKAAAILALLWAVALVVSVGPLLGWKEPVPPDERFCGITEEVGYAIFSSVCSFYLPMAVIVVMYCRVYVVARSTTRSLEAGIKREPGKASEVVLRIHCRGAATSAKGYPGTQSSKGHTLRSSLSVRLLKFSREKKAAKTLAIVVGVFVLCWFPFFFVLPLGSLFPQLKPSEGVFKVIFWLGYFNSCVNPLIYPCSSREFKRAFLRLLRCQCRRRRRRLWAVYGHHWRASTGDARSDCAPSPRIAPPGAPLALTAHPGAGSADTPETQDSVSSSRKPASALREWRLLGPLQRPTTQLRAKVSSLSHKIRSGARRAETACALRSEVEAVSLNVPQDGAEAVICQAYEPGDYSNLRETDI
T4 sequence (P43140 whole entry): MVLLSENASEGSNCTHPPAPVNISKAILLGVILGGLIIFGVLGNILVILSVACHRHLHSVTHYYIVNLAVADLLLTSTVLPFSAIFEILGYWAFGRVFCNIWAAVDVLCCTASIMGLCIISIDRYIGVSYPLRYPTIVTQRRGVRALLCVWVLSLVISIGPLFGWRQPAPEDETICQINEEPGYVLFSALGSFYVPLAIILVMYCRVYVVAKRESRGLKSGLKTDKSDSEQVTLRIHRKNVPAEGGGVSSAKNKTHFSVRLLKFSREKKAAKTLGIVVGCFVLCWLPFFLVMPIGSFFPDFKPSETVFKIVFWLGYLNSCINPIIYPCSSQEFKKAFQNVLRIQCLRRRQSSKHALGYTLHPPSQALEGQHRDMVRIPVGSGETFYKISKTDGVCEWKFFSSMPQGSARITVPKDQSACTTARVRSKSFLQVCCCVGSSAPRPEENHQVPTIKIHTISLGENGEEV

[5] = target: Beta-2 adrenergic receptor (Cavia porcellus) (UniProt Q8K4Z4); test: Compound was evaluated for beta adrenoceptor agonistic activity towards Beta-2 adrenergic receptor of isolated guinea pig tracheal strip; assay type: functional
Beta-2 adrenergic receptor (Cavia porcellus), sequence (Q8K4Z4 whole entry, looked up): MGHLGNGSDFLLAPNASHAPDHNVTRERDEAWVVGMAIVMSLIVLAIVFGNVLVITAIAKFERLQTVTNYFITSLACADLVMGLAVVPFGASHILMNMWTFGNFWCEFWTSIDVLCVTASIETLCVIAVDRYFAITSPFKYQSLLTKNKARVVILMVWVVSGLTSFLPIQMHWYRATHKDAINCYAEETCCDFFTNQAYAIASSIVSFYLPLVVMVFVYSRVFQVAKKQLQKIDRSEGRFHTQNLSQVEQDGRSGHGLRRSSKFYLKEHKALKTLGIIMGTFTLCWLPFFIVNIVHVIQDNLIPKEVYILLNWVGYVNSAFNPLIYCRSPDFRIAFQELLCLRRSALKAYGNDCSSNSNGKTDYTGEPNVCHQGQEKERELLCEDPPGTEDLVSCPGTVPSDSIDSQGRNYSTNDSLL

[6] = target: T5, Beta-1 adrenergic receptor (Rattus norvegicus, UniProt P18090)
T5 sequence (P18090 whole entry): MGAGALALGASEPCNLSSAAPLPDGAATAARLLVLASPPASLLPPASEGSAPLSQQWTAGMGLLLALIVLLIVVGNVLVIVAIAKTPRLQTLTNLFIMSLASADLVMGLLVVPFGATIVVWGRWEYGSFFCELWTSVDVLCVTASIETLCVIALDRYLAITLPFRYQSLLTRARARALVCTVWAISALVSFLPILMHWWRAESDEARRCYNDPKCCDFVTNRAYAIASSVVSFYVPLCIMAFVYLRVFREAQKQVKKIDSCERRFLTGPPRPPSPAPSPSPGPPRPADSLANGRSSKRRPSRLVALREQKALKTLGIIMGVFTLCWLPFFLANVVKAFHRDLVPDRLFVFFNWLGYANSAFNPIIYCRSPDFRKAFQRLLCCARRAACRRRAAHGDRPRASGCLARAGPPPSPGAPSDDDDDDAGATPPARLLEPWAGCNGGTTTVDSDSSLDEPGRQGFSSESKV
Description: Compound was evaluated for beta adrenergic binding affinity towards Beta-1 adrenergic receptor of rat brain

[7] = target: T3, Adrenergic receptor alpha-2 (Homo sapiens); test: Compound was evaluated for alpha adrenoceptor agonistic activity towards alpha-2 adrenergic receptor of isolated guinea pig ileum; assay type: functional, tissue-based; conditions: Cavia porcellus, target entry is the homologue from another species
[8] = target: Beta-1 adrenergic receptor (Cavia porcellus) (UniProt B0FL73); test: Compound was evaluated for beta adrenoceptor agonistic activity towards Beta-1 adrenergic receptor of isolated guinea pig atria; assay type: functional
Beta-1 adrenergic receptor (Cavia porcellus), sequence (B0FL73 1-467): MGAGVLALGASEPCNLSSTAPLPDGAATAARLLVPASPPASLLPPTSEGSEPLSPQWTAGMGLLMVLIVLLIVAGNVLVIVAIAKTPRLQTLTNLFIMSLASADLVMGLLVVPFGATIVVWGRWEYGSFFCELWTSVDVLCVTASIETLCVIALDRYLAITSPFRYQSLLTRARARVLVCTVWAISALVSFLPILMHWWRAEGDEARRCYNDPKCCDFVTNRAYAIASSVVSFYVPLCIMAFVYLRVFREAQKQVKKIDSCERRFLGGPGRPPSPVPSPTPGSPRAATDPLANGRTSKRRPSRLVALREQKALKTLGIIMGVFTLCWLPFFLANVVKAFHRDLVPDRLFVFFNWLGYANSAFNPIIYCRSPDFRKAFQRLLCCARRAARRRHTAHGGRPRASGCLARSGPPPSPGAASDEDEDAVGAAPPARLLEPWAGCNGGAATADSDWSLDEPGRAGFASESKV

[9] = target: Beta-1 adrenergic receptor (Cavia porcellus) (UniProt B0FL73); test: Intrinsic activity was expressed as the ratio between maximal response elicited by compound and that elicited by full agonist ISO towards beta 1 receptor of isolated guinea pig atria; assay type: functional
[10] = target: T3, Adrenergic receptor alpha-2 (Homo sapiens); conditions: Cavia porcellus; Ileum
Description: Intrinsic activity was expressed as the ratio between maximal response elicited by compound and that elicited by full agonist NE towards Alpha-2 adrenergic receptor of isolated guinea pig ileum

[11] = target: Beta-1 adrenergic receptor (Cavia porcellus) (UniProt B0FL73)
Description: Intrinsic activity was expressed as the ratio between maximal response elicited by compound and that elicited by full agonist ISO towards Beta-1 adrenergic receptor of isolated guinea pig atria

[12] = target: T6, Adrenergic receptor alpha-1 (Rattus norvegicus) (UniProt P15823+P23944+P43140); conditions: Vas deferens
[13] = target: Beta-2 adrenergic receptor (Cavia porcellus) (UniProt Q8K4Z4)
Description: Compound was evaluated for beta adrenoceptor agonistic activity towards beta 2 receptor of isolated guinea pig tracheal strip

[14] = target: T6, Adrenergic receptor alpha-1 (Rattus norvegicus); test: Compound was evaluated for alpha adrenoceptor agonistic activity towards Alpha-1 adrenergic receptor of isolated rat vas deferens; assay type: functional, tissue-based
[15] = target: T1, Beta-2 adrenergic receptor; test: Compound was evaluated for beta adrenergic binding affinity towards beta-2 receptor of bovine lung
[16] = target: Beta-1 adrenergic receptor (Cavia porcellus) (UniProt B0FL73); test: Intrinsic activity was expressed as the ratio between maximal response elicited by compound and that elicited by full agonist ISO towards beta-1 receptor of isolated guinea pig atria; assay type: functional
[17] = target: T6, Adrenergic receptor alpha-1 (Rattus norvegicus); test: Intrinsic activity was expressed as the ratio between maximal response elicited by compound and that elicited by full agonist NE towards Alpha-1 adrenergic receptor of isolated rat vas deferens; assay type: functional, tissue-based
[18] = target: T2, Adrenergic receptor alpha-2; test: Compound was evaluated for alpha adrenergic binding affinity towards Alpha-2 adrenergic receptor of rat brain
[19] = target: T6, Adrenergic receptor alpha-1 (Rattus norvegicus); test: Compound was evaluated for alpha adrenoceptor agonistic activity towards Alpha-1 adrenergic receptor of isolated rat vas deferens (exp 2); assay type: functional, tissue-based
[20] = target: Beta-1 adrenergic receptor (Cavia porcellus) (UniProt B0FL73); test: Compound was evaluated for beta adrenoceptor agonistic activity towards beta 1 receptor of isolated guinea pig atria; assay type: functional
[21] = target: T5, Beta-1 adrenergic receptor; test: Compound was evaluated for beta adrenergic binding affinity towards beta-1 receptor of rat brain
[22] = target: T6, Adrenergic receptor alpha-1 (Rattus norvegicus); test: Compound was evaluated for alpha adrenoceptor agonistic activity towards alpha 1 receptor of isolated rat vas deferens (exp 1); assay type: functional, tissue-based
[23] = target: T4, Adrenergic receptor alpha-1; test: Compound was evaluated for alpha adrenergic binding affinity towards alpha-1 receptor of rat brain

T1 sequence (Q28044 whole entry): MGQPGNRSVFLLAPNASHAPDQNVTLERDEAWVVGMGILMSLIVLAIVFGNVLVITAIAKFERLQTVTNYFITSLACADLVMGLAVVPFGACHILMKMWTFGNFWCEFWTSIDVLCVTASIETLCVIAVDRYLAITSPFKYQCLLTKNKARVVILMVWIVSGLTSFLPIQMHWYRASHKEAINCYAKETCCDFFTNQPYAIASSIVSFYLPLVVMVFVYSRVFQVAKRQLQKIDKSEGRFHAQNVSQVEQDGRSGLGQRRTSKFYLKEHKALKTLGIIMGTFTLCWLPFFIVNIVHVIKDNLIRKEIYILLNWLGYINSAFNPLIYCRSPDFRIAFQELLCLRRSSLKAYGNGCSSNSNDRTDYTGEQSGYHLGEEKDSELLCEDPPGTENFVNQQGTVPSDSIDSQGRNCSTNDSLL

## CC(C)N1CCCC(O)(c2ccc(O)c(O)c2)C1 (stereo not drawn)
[1]
  Ki: 92 µM
[2]
  Ki: 4.8 µM
[3]
  Intrinsic activity: 0.89
[4]
  Ki: 36 µM
[5]
  pD2: 4.64
[6]
  Ki: 60 µM
[7]
  pD2: 4.57
[8]
  pD2: 3.5
[9]
  Intrinsic activity: 0.16

## NC[C@H](O)c1ccc(O)c(O)c1 [NOREPINEPHRINE]
[10]
  pD2: 6.56
[11]
  pD2: 6.32
[12]
  pD2: 5.12
[13]
  pD2: 6.03
[14]
  Intrinsic activity: 1
[15]
  Ki: 6 µM

## N[C@@H]1CCc2cc(O)c(O)cc2[C@H]1O
[1]
  Ki: 71 µM
[2]
  Ki: 0.09 µM
[16]
  Intrinsic activity: 0.81
[3]
  Intrinsic activity: 1.42
[4]
  Ki: 0.3 µM
[5]
  pD2: 5.36
[14]
  pD2: 4.6
[6]
  Ki: > 100 µM
[7]
  pD2: 6.63
[8]
  pD2: 4.57
[17]
  Intrinsic activity: 0.5

## Oc1ccc(C2CNCCO2)cc1O (stereo not drawn)
[10]
  pD2: 7.34
[18]
  Ki: 0.026 µM
[19]
  Intrinsic activity: 0.91
[4]
  Ki: 7.4 µM
[13]
  pD2: 4.76
[15]
  Ki: 9.2 µM
[20]
  pD2: 5.31
[9]
  Intrinsic activity: 0.91
[21]
  Ki: 15 µM
[22]
  pD2: 4.88

## CC(C)NCC(O)c1ccc(O)c(O)c1 (stereo not drawn) [ISOPROTERENOL]
[18]
  Ki: 21 µM
[23]
  Ki: 35.5 µM
